{
  "source": "patent US8426436B2",
  "about": "“Heterocyclic cyclopamine analogs and methods of use thereof” (Infinity Discovery, Inc., priority 2007, dated 2013)",
  "key": {"Hedgehog pathway": {"test_system": "Hedgehog pathway", "assay": "C3H10T1/2 osteoblast differentiation assay (alkaline phosphatase readout, Shh-induced)", "format": "cell-based", "details": "Mus musculus, C3H 10T1/2; C3H10T1/2 cells, sonic Hedgehog 250 ng/ml, AP activity normalized to total protein; approximate EC50 for inhibition", "description": "Hedgehog pathway specific cancer cell killing effects may be ascertained using the following assay. C3H10T1/2 cells differentiate into osteoblasts when contacted with the sonic hedgehog peptide (Shh-N). Upon differentiation, these osteoblasts produce high levels of alkaline phosphatase (AP) which can be measured in an enzymatic assay (Nakamura, et al., BBRC (1997) 237:465). Compounds that block the differentiation of C3H10T1/2 into osteoblasts (a Shh dependent event) can therefore be identified by a reduction in AP production (van der Horst, et al., Bone (2003) 33:899). The assay details are described below. The results approximate (EC50 for inhibition) of the differentiation assay is shown below in Table 1.\nMouse embryonic mesoderm fibroblasts C3H10T1/2 cells (obtained from ATCC) were cultured in Basal MEM Media (Gibco/Invitrogen) supplemented with 10% heat inactivated FBS (Hyclone), 50 units/ml penicillin and 50 ug/ml streptomycin (Gibco/Invitrogen) at 37° C. with 5% CO2 in air atmosphere.\nAlkaline Phosphatase Assay C3H10T1/2 cells were plated in 96 wells with a density of 8×10^3 cells/well. Cells were grown to confluence (72 hrs). After sonic Hedgehog (250 ng/ml), and/or compound treatment, the cells were lysed in 110 μL of lysis buffer (50 mM Tris pH 7.4, 0.1% TritonX100), plates were sonicated and lysates spun through 0.2 μm PVDF plates (Corning). 40 μL of lysates was assayed for AP activity in alkaline buffer solution (Sigma) containing 1 mg/ml p-Nitrophenyl Phosphate. After incubating for 30 min at 37° C., the plates were read on an Envision plate reader at 405 nm. Total protein was quantified with a BCA protein assay kit from Pierce according to manufacturer's instructions. AP activity was normalized against total protein."}, "murine Gli-1": {"test_system": "murine Gli-1", "assay": "Gli-1 mRNA analysis of PANC-1 tumor tissue, murine Gli-1", "format": "in vivo", "details": "RNA isolated 24 hours after final dose", "experimental": "(§1) The activity of Compound 10 was also tested in another model of pancreatic cancer in which the PANC-1 pancreatic cancer cells were implanted into the orthotopic site, that is, directly into the pancreas. At the end of 5 weeks of dosing, 40 mg/kg/day (a total of 35 doses), tumor growth was monitored by weighing the tumors as they were removed from the animals. There was a statistically significant (p=0.00014) difference between the Compound 10 and vehicle treated animals which was seen as a 47% decrease in tumor weight in the Compound 10 treated animals. In addition, tumor tissue was harvested and RNA was isolated 24 hours after the final dose of Compound 10."}, "murine Gli-1 mRNA": {"test_system": "murine Gli-1 mRNA", "assay": "q-RT-PCR of HH pathway genes in harvested BxPC-3 tumors, murine Gli-1", "format": "in vivo", "details": "BxPC-3 tumors harvested 4 hours post last dose, 40 mg/kg/day oral", "experimental": "(§2) The activity of Compound 10 was further tested in a human pancreatic model: BxPC-3 cells were implanted subcutaneously into the flanks of the right legs of mice. On day 42 post-tumor implant, the mice were randomized into two groups to receive either Vehicle (30% HPBCD) or Compound 10. Compound 10 was administered orally at 40 mg/kg/day. […] At the end of the study, the tumors were harvested 4 hours post the last dose to evaluate an on target response by q-RT-PCR analysis of the HH pathway genes."}, "human Gli-1": {"test_system": "human Gli-1", "assay": "q-RT-PCR of HH pathway genes in harvested BxPC-3 tumors, human Gli-1", "format": "in vivo", "details": "BxPC-3 tumors harvested 4 hours post last dose, 40 mg/kg/day oral", "experimental": "as §2"}, "human Gli-1 mRNA": {"test_system": "human Gli-1 mRNA", "assay": "Gli-1 mRNA analysis of PANC-1 tumor tissue, human Gli-1", "format": "in vivo", "details": "RNA isolated 24 hours after final dose", "experimental": "as §1"}, "BxPC-3 cells": {"test_system": "BxPC-3 cells", "assay": "BxPC-3 human pancreatic subcutaneous tumor model, tumor volume", "format": "in vivo, mice", "details": "BxPC-3 subcutaneous, orally 40 mg/kg/day, 25 daily doses, p=0.0437", "experimental": "as §2"}, "Gli-1 mRNA": {"test_system": "Gli-1 mRNA", "assay": "Ptch1/Hic1 medulloblastoma subcutaneous allograft model, Gli-1 mRNA expression", "format": "in vivo, mouse", "details": "single oral (PO) dose, subcutaneously implanted tumors, 8 hours post dose", "experimental": "(§3) The activity of Compound 10 was evaluated in a transgenic mouse model of medulloblastoma. Mice that are heterozygous for loss of function mutations in the tumor suppressors Patched1 (Ptch1) and Hypermethylated in Cancer (Hic1) develop spontaneous medulloblastoma. […] When passaged as subcutaneous allografts, these tumors grow aggressively and are Hedgehog pathway-dependent. This model was employed to evaluate the efficacy of orally administered Compound, and to correlate activity with drug exposure in plasma and tumors."}, "[1]": {"test_system": "PANC-1 pancreatic cancer cells", "assay": "PANC-1 orthotopic pancreatic cancer model, tumor weight", "format": "in vivo", "details": "40 mg/kg/day, 5 weeks (35 doses), p=0.00014", "experimental": "as §1"}, "medulloblastoma": {"test_system": "medulloblastoma", "assay": "Ptch1/Hic1 medulloblastoma subcutaneous allograft model, tumor growth", "format": "in vivo, mouse", "experimental": "as §3\nThe approximate effective daily oral dose for 50% inhibition of tumor growth (ED50) is […] 8 mg/kg."}},
  "data": [
    {"molecule": "C[C@@H]1CN[C@H]2[C@@H](C)[C@@]3(CC[C@@H]4C(C[C@H]5[C@H]4CC[C@@H]4Cc6[nH]ncc6C[C@@]45C)C3)O[C@@H]2C1", "note": "(stereo partly shown) [Compound 17]", "values": [
      {"measurement": "EC50", "setting": "Hedgehog pathway", "result": "20 to 100", "unit": "nM"}
    ]},
    {"molecule": "CC1=C2C[C@H]3[C@@H](CC[C@@H]4Cc5[nH][nH]c(=O)c5C[C@@]43C)[C@@H]2CC[C@@]2(C1)O[C@@H]1C[C@H](C)CN[C@H]1[C@H]2C", "note": "[Compound 32]", "values": [
      {"measurement": "EC50", "setting": "Hedgehog pathway", "result": "> 100", "unit": "nM"}
    ]},
    {"molecule": "CC1=C2C[C@H]3[C@@H](CC[C@@H]4Cc5nn(S(C)(=O)=O)cc5C[C@@]43C)[C@@H]2CC[C@@]2(C1)O[C@@H]1C[C@H](C)CN(S(C)(=O)=O)[C@H]1[C@H]2C", "note": "[Compound 41]", "values": [
      {"measurement": "EC50", "setting": "Hedgehog pathway", "result": "> 100", "unit": "nM"}
    ]},
    {"molecule": "CC1=C2C[C@H]3[C@@H](CC[C@@H]4Cc5nn(C)cc5C[C@@]43C)[C@@H]2CC[C@@]2(C1)O[C@@H]1C[C@H](C)CN[C@H]1[C@H]2C", "note": "[Compound 11]", "values": [
      {"measurement": "EC50", "setting": "Hedgehog pathway", "result": "20 to 100", "unit": "nM"}
    ]},
    {"molecule": "CC1=C2C[C@H]3[C@@H](CC[C@@H]4Cc5[nH]ncc5C[C@@]43C)[C@@H]2CC[C@@]2(C1)O[C@@H]1C[C@H](C)CN(S(C)(=O)=O)[C@H]1[C@H]2C", "note": "[Compound 40]", "values": [
      {"measurement": "EC50", "setting": "Hedgehog pathway", "result": "20 to 100", "unit": "nM"}
    ]},
    {"molecule": "CC1=C2C[C@H]3[C@@H](CC[C@@H]4Cc5[nH]ncc5C[C@@]43C)[C@@H]2CC[C@]12O[C@@H]1C[C@H](C)CN[C@H]1[C@H]2C", "note": "[Compound 19]", "values": [
      {"measurement": "EC50", "setting": "Hedgehog pathway", "result": "> 100", "unit": "nM"}
    ]},
    {"molecule": "CC1=C2C[C@H]3[C@@H](CC[C@@H]4Cc5nc(C)sc5C[C@@]43C)[C@@H]2CC[C@@]2(C1)O[C@@H]1C[C@H](C)CN[C@H]1[C@H]2C", "note": "[Compound 42]", "values": [
      {"measurement": "EC50", "setting": "Hedgehog pathway", "result": "> 100", "unit": "nM"}
    ]},
    {"molecule": "CC1=C2C[C@H]3[C@@H](CC[C@@H]4Cc5n[nH]cc5C[C@@]43C)[C@@H]2CC[C@@]2(C1)O[C@@H]1C[C@H](C)CN[C@H]1[C@H]2C", "note": "[Compound 10]", "values": [
      {"measurement": "murine Gli-1 modulation", "setting": "murine Gli-1", "result": "did reveal modulation"},
      {"measurement": "EC50", "setting": "Hedgehog pathway", "result": "< 20", "unit": "nM"},
      {"measurement": "murine Gli-1 mRNA levels vs vehicle", "setting": "murine Gli-1 mRNA", "result": "robust down-regulation"},
      {"measurement": "human Gli-1 modulation (q-RT-PCR)", "setting": "human Gli-1", "result": "no modulation"},
      {"measurement": "human Gli-1 mRNA modulation", "setting": "human Gli-1 mRNA", "result": "no modulation"},
      {"measurement": "reduction of tumor volume growth compared to vehicle control", "setting": "BxPC-3 cells", "result": 37, "unit": "%"},
      {"measurement": "HH pathway regulation measured by Gli-1 mRNA expression", "setting": "Gli-1 mRNA", "result": "dose-dependent down-regulation"},
      {"measurement": "decrease in tumor weight vs vehicle", "setting": "[1]", "result": 47, "unit": "%"},
      {"measurement": "ED50", "setting": "medulloblastoma; Mus musculus, daily oral dosing, read-out: approximate effective daily oral dose for 50% inhibition of tumor growth (ED50)", "result": "~8", "unit": "mg/kg"},
      {"measurement": "tumor growth effect", "setting": "medulloblastoma; daily (QD) PO administration", "result": "dose dependent inhibition of tumor growth, with frank tumor regression seen at higher doses"},
      {"measurement": "long term survival following cessation of treatment", "setting": "medulloblastoma; treated QD for 21 days", "result": "> 19", "unit": "days"},
      {"measurement": "tumor re-growth after cessation of treatment", "setting": "medulloblastoma; treated QD for 21 days", "result": "little to no tumor re-growth"}
    ]},
    {"molecule": "CC1=C2C[C@H]3[C@@H](CC[C@@H]4Cc5n[nH]c(C(F)(F)F)c5C[C@@]43C)[C@@H]2CC[C@@]2(C1)O[C@@H]1C[C@H](C)CN[C@H]1[C@H]2C", "note": "[Compound 15]", "values": [
      {"measurement": "EC50", "setting": "Hedgehog pathway", "result": "> 100", "unit": "nM"}
    ]},
    {"molecule": "CC(=O)N1C[C@@H](C)C[C@H]2O[C@]3(CC[C@@H]4C(=C(C)C3)C[C@H]3[C@H]4CC[C@@H]4Cc5n[nH]cc5C[C@@]43C)[C@H](C)[C@@H]21", "note": "[Compound 14]", "values": [
      {"measurement": "EC50", "setting": "Hedgehog pathway", "result": "20 to 100", "unit": "nM"}
    ]},
    {"molecule": "CC1=C2C[C@H]3[C@@H](CC[C@@H]4Cc5[nH]ncc5C[C@@]43C)[C@@H]2CC[C@@]2(C1)O[C@@H]1C[C@H](C)CN(S(N)(=O)=O)[C@H]1[C@H]2C", "note": "[Compound 44]", "values": [
      {"measurement": "EC50", "setting": "Hedgehog pathway", "result": "20 to 100", "unit": "nM"}
    ]},
    {"molecule": "CC1=C2C[C@H]3[C@@H](CC[C@@H]4Cc5n[nH]cc5C[C@@]43C)[C@@H]2CC[C@@]2(C1)O[C@@H]1C[C@H](C)CN(O)[C@H]1[C@H]2C", "note": "[Compound 31]", "values": [
      {"measurement": "EC50", "setting": "Hedgehog pathway", "result": "20 to 100", "unit": "nM"}
    ]},
    {"molecule": "CC1=C2C[C@H]3[C@@H](CC[C@@H]4Cc5nn(S(C)(=O)=O)cc5C[C@@]43C)[C@@H]2CC[C@@]2(C1)O[C@@H]1C[C@H](C)CN[C@H]1[C@H]2C", "note": "[Compound 12]", "values": [
      {"measurement": "EC50", "setting": "Hedgehog pathway", "result": "> 100", "unit": "nM"}
    ]},
    {"molecule": "CC1=C2C[C@H]3[C@@H](CC[C@H]4Cc5[nH]ncc5C[C@@]43C)[C@@H]2CC[C@@]2(C1)O[C@@H]1C[C@H](C)CN[C@H]1[C@H]2C", "note": "[Compound 45]", "values": [
      {"measurement": "EC50", "setting": "Hedgehog pathway", "result": "> 100", "unit": "nM"}
    ]},
    {"molecule": "CC1=C2C[C@H]3[C@@H](CC[C@@H]4Cc5nocc5C[C@@]43C)[C@@H]2CC[C@@]2(C1)O[C@@H]1C[C@H](C)CN[C@H]1[C@H]2C", "note": "[Compound 1]", "values": [
      {"measurement": "EC50", "setting": "Hedgehog pathway", "result": "20 to 100", "unit": "nM"}
    ]},
    {"molecule": "CC1=C2C[C@H]3[C@@H](CC[C@@H]4Cc5nn(S(=O)(=O)c6ccc(C)cc6)cc5C[C@@]43C)[C@@H]2CC[C@@]2(C1)O[C@@H]1C[C@H](C)CN[C@H]1[C@H]2C", "note": "[Compound 43]", "values": [
      {"measurement": "EC50", "setting": "Hedgehog pathway", "result": "> 100", "unit": "nM"}
    ]},
    {"molecule": "CC1=C2C[C@H]3[C@@H](CC[C@@H]4Cc5n[nH]cc5C[C@@]43C)[C@@H]2CC[C@@]2(C1)O[C@@H]1C[C@H](C)CN(C)[C@H]1[C@H]2C", "note": "[Compound 13]", "values": [
      {"measurement": "EC50", "setting": "Hedgehog pathway", "result": "20 to 100", "unit": "nM"}
    ]}
  ]
}
